From patent US20230355511A1, “BIO[…] AND SOLVENT COMPOSITIONS AND SYSTEMS FOR EXTENDED STORAGE AND […] OF ACTIVE PHARMACEUTICAL INGREDIENTS” (TOLMAR INTERNATIONAL LIMITED, priority 2020, published 2023)

Experiment: In vitro release of TU, jar technique, 1% CTAB in TRIS buffer pH 8.7, 37° C.
Assay type: in vitro ADME
Conditions: FIG. 14, Table 11 formulations, 200 mg depot in 200 mL media
Description: The in vitro release profiles of solidifying liquid polymer formulations containing TU were conducted using jar technique method with 1% CTAB surfactant in TRIS buffer, pH 8.7 at 37° C. Depots were made by injecting 200 mg of formulation into 200 mL release media. Samples were then periodically collected and analyzed for released drug content. […] Non-formulated TU with a particle size of 67 μm (i.e., with no polymer) were also analyzed as a reference. Additionally, a 20% TU non-solidifying liquid polymer comprising 30% of a 14.2 kDa PDLCL liquid polymer with 25% NMP and 25% PEG 300 was prepared as a reference.

CCCCCCCCCCC(=O)O[C@H]1CC[C@H]2[C@@H]3CCC4=CC(=O)CC[C@]4(C)[C@H]3CC[C@]12C [non-formulated TU particles, testosterone undecanoate]
TU released within the first 7 days: approximately 75%
